Results from ChEMBL document CHEMBL4765470 (J Med Chem, 2021).
Starred links: 1 amine or outer side, 2 acyl side, 3 side chain; linkers in the order of their positions; H or OH if unused. Non-standard residues stand in square brackets, D forms with d. Residues, ends and D or L forms follow the SMILES beside them. *: point of attachment. Bpa = N[C@@H](Cc1ccc(C(=O)c2ccccc2)cc1)C(=O)O; Ala(thiazol-5-yl) = N[C@@H](Cc1cncs1)C(=O)O; β3hPhg = O=C(C[C@@H](N[*:1])c1ccccc1)[*:2]; Bip = N[C@@H](Cc1ccc(-c2ccccc2)cc1)C(=O)O; GABA(4S-Me) = C[C@@H](CCC(=O)[*:2])N[*:1]; 1Nal = N[C@@H](Cc1cccc2ccccc12)C(=O)O; 2Nal = N[C@@H](Cc1ccc2ccccc2c1)C(=O)O; 2Thi = N[C@@H](Cc1cccs1)C(=O)O; Tle = CC(C)(C)[C@H](N)C(=O)O; Pip = O=C(O)[C@@H]1CCCCN1; Nle = CCCC[C@H](N)C(=O)O; Orn = NCCC[C@H](N)C(=O)O; Dab = NCC[C@H](N)C(=O)O; Ac3c = NC1(C(=O)O)CC1; Aib = CC(C)(N)C(=O)O; Bn = c1ccc(C*)cc1

target: T1, Apelin receptor (Homo sapiens, UniProt P35414); experiment: Displacement of [125I] [NIe75, Tyr77]Pyr-apelin-13 from YFP-tagged human APJ receptor expressed in HEK293 cell membranes incubated for 1 hr by gamma counting based Cheng-Prusoff equation analysis
T1 sequence (P35414 whole entry): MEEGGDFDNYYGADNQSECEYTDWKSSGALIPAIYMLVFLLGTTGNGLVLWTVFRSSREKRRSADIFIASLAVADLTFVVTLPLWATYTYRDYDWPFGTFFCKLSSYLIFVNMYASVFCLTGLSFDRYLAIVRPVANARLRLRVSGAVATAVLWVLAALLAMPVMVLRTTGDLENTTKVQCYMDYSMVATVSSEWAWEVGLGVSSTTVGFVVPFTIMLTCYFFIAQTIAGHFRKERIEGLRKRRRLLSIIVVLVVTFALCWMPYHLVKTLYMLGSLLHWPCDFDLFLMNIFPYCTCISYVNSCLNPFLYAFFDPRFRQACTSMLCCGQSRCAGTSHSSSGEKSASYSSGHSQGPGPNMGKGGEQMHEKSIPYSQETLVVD

| Compound | Ki [nM] |
| --- | --- |
| CCCC[C@H](N)C(=O)N1CCC[C@H]1C(=O)N[C@@H](CC(C)C)C(=O)N[C@@H](Cc1cnc[nH]1)C(=O)N[C@@H](CO)C(=O)N[C@@H](CCCNC(=N)N)C(=O)N[C@H](C(=O)N1CCC[C@H]1C(=O)N[C@@H](C)CCC(=O)O)C(C)C (H-[Nle]PLHSRVP-{GABA(4S-Me)}) | > 10000 |
| CCCC[C@H](N)C(=O)N1CCC[C@H]1C(=O)N[C@@H](CC(C)C)C(=O)N[C@@H](Cc1cnc[nH]1)C(=O)N[C@@H](CO)C(=O)N[C@@H](CCCNC(=N)N)C(=O)N[C@H](C(=O)N1CCC[C@H]1C(=O)N[C@@H](Cc1ccccc1)C(=O)O)C(C)C (H-[Nle]PLHSRVPF-OH) | 128 |
| CCCC[C@H](N)C(=O)N1CCC[C@H]1C(=O)N[C@@H](CC(C)C)C(=O)N[C@@H](Cc1cnc[nH]1)C(=O)N[C@@H](CO)C(=O)N[C@@H](CCCNC(=N)N)C(=O)N[C@H](C(=O)N1CCC[C@H]1C(=O)N[C@@H](Cc1ccccc1)C(=O)N[C@@H](C)C(=O)O)C(C)C (H-[Nle]PLHSRVPFA-OH) | 57 |
| CCCC[C@H](N)C(=O)N1CCC[C@H]1C(=O)N[C@@H](CC(C)C)C(=O)N[C@@H](Cc1ccc2ccccc2c1)C(=O)N[C@@H](CO)C(=O)N[C@@H](CCCNC(=N)N)C(=O)N[C@H](C(=O)N1CCC[C@H]1C(=O)N[C@@H](Cc1ccccc1)C(=O)N1CCC[C@H]1C(=O)O)C(C)C (H-[Nle]PL[2Nal]SRVPFP-OH) | > 10000 |
| CCCC[C@H](N)C(=O)N1CCC[C@H]1C(=O)N[C@H](C(=O)N[C@@H](Cc1cnc[nH]1)C(=O)N[C@@H](CO)C(=O)N[C@@H](CCCNC(=N)N)C(=O)N[C@H](C(=O)N1CCC[C@H]1C(=O)N[C@@H](Cc1ccccc1)C(=O)N1CCC[C@H]1C(=O)O)C(C)C)C(C)C (H-[Nle]PVHSRVPFP-OH) | 54 |
| CCCC[C@H](N)C(=O)N1CCC[C@H]1C(=O)N[C@@H](CC(C)C)C(=O)N[C@@H](Cc1cnc[nH]1)C(=O)N[C@@H](CO)C(=O)N[C@@H](CCCNC(=N)N)C(=O)N[C@H](C(=O)N1CCC[C@H]1C(=O)N[C@@H](Cc1ccc(-c2ccccc2)cc1)C(=O)N1CCC[C@H]1C(=O)O)C(C)C (H-[Nle]PLHSRVP[Bip]P-OH) | > 10000 |
| CCCC[C@H](N)C(=O)N1CCC[C@H]1C(=O)N[C@@H](Cc1ccccc1)C(=O)N[C@@H](Cc1cnc[nH]1)C(=O)N[C@@H](CO)C(=O)N[C@@H](CCCNC(=N)N)C(=O)N[C@H](C(=O)N1CCC[C@H]1C(=O)N[C@@H](Cc1ccccc1)C(=O)N1CCC[C@H]1C(=O)O)C(C)C (H-[Nle]PFHSRVPFP-OH) | 212 |
| CCCC[C@H](N)C(=O)N1CCC[C@H]1C(=O)N[C@@H](CC(C)C)C(=O)N[C@@H](CCCN)C(=O)N[C@@H](CO)C(=O)N[C@@H](CCCNC(=N)N)C(=O)N[C@H](C(=O)N1CCC[C@H]1C(=O)N[C@@H](Cc1ccccc1)C(=O)N1CCC[C@H]1C(=O)O)C(C)C (H-[Nle]PL[Orn]SRVPFP-OH) | > 10000 |
| CCCC[C@H](N)C(=O)N1CCC[C@H]1C(=O)N[C@@H](CC(C)C)C(=O)N[C@@H](Cc1ccccc1)C(=O)N[C@@H](CO)C(=O)N[C@@H](CCCNC(=N)N)C(=O)N[C@H](C(=O)N1CCC[C@H]1C(=O)N[C@@H](Cc1ccccc1)C(=O)N1CCC[C@H]1C(=O)O)C(C)C (H-[Nle]PLFSRVPFP-OH) | > 10000 |
| CCCC[C@H](N)C(=O)N1CCC[C@H]1C(=O)N[C@@H](CC(C)C)C(=O)N[C@@H](Cc1cnc[nH]1)C(=O)N[C@@H](CO)C(=O)N[C@@H](CCCNC(=N)N)C(=O)N[C@H](C(=O)N1CCC[C@H]1C(=O)N[C@@H](Cc1ccccc1)C(=O)N1CCC[C@H]1C(=O)O)C(C)(C)C (H-[Nle]PLHSR[Tle]PFP-OH) | 174 |
| CCCC[C@H](N)C(=O)N1CCC[C@H]1C(=O)N(C)[C@@H](CC(C)C)C(=O)N[C@@H](Cc1cnc[nH]1)C(=O)N[C@@H](CO)C(=O)N[C@@H](CCCNC(=N)N)C(=O)N[C@H](C(=O)N1CCC[C@H]1C(=O)N[C@@H](Cc1ccccc1)C(=O)N1CCC[C@H]1C(=O)O)C(C)C | 120 |
| CCCC[C@H](N)C(=O)N1CCC[C@H]1C(=O)N[C@@H](CC(C)C)C(=O)N[C@@H](Cc1cccs1)C(=O)N[C@@H](CO)C(=O)N[C@@H](CCCNC(=N)N)C(=O)N[C@H](C(=O)N1CCC[C@H]1C(=O)N[C@@H](Cc1ccccc1)C(=O)N1CCC[C@H]1C(=O)O)C(C)C (H-[Nle]PL[2Thi]SRVPFP-OH) | 664 |
| CCCC[C@H](N)C(=O)N1CCC[C@H]1C(=O)N[C@@H](CC(C)C)C(=O)N[C@@H](Cc1cncs1)C(=O)N[C@@H](CO)C(=O)N[C@@H](CCCNC(=N)N)C(=O)N[C@H](C(=O)N1CCC[C@H]1C(=O)N[C@@H](Cc1ccccc1)C(=O)N1CCC[C@H]1C(=O)O)C(C)C (H-[Nle]PL[Ala(thiazol-5-yl)]SRVPFP-OH) | 71 |
| CCCC[C@H](N)C(=O)N1CCC[C@H]1C(=O)N[C@@H](CC(C)C)C(=O)N[C@@H](Cc1cnc[nH]1)C(=O)N[C@@H](CO)C(=O)N[C@@H](CCCNC(=N)N)C(=O)N[C@H](C(=O)N1CCC[C@H]1C(=O)N[C@@H](Cc1ccc(OCc2ccccc2)cc1)C(=O)O)C(C)C (H-[Nle]PLHSRVPY(Bn)-OH) | 92 |
| H-HSRVPFP-OH | > 10000 |
| CCCC[C@H](N)C(=O)N1CCC[C@H]1C(=O)N[C@@H](CC(C)C)C(=O)N[C@@H](Cc1cnc[nH]1)C(=O)N[C@@H](CO)C(=O)N[C@@H](CCCNC(=N)N)C(=O)N[C@@H](CC(C)C)C(=O)N1CCC[C@H]1C(=O)N[C@@H](Cc1ccccc1)C(=O)N1CCC[C@H]1C(=O)O (H-[Nle]PLHSRLPFP-OH) | 45 |
| CCCC[C@H](N)C(=O)N1CCC[C@H]1C(=O)N[C@@H](CC(C)C)C(=O)N[C@@H](Cc1cnc[nH]1)C(=O)N[C@@H](CO)C(=O)N[C@@H](CCCNC(=N)N)C(=O)N[C@H](C(=O)N1CCC[C@H]1C(=O)N[C@@H](Cc1ccccc1)C(=O)N1C[C@H](O)C[C@H]1C(=O)O)C(C)C | 76 |
| CCCC[C@H](N)C(=O)N1CCC[C@H]1C(=O)N[C@@H](CC(C)C)C(=O)N[C@@H](Cc1cnc[nH]1)C(=O)N[C@@H](CO)C(=O)N[C@@H](CCCNC(=N)N)C(=O)N[C@H](C(=O)N1CCCC[C@H]1C(=O)N[C@@H](Cc1ccccc1)C(=O)O)C(C)C (H-[Nle]PLHSRV[Pip]F-OH) | 186 |
| CCCC[C@H](N)C(=O)N1CCC[C@H]1C(=O)N[C@@H](CC(C)C)C(=O)N[C@@H](Cc1cnc[nH]1)C(=O)N[C@@H](CO)C(=O)N[C@@H](CCCNC(=N)N)C(=O)N[C@@H](CCC)C(=O)N1CCC[C@H]1C(=O)N[C@@H](Cc1ccccc1)C(=O)N1CCC[C@H]1C(=O)O | 69 |
| CCCC[C@H](N)C(=O)N1CCC[C@H]1C(=O)N[C@@H](CC(C)C)C(=O)N[C@@H](Cc1cnc[nH]1)C(=O)N[C@@H](CO)C(=O)N[C@@H](CCCNC(=N)N)C(=O)N[C@H](C(=O)N1CCC[C@H]1C(=O)N[C@@H](C)C(=O)N1CCC[C@H]1C(=O)O)C(C)C (H-[Nle]PLHSRVPAP-OH) | > 10000 |
| CCCC[C@H](N)C(=O)N1CCC[C@H]1C(=O)N[C@@H](CC(C)C)C(=O)N[C@@H](Cc1c[nH]c2ccccc12)C(=O)N[C@@H](CO)C(=O)N[C@@H](CCCNC(=N)N)C(=O)N[C@H](C(=O)N1CCC[C@H]1C(=O)N[C@@H](Cc1ccccc1)C(=O)N1CCC[C@H]1C(=O)O)C(C)C (H-[Nle]PLWSRVPFP-OH) | 62 |
| CCCC[C@H](N)C(=O)N1CCC[C@H]1C(=O)N[C@@H](CC(C)C)C(=O)N[C@@H](Cc1cnc[nH]1)C(=O)N[C@@H](CO)C(=O)N[C@@H](CCCNC(=N)N)C(=O)N[C@H](C(=O)NC(C)(C)C(=O)N[C@@H](Cc1ccccc1)C(=O)O)C(C)C (H-[Nle]PLHSRV[Aib]F-OH) | > 10000 |
| CCCC[C@H](N)C(=O)N1CCC[C@H]1C(=O)N[C@@H](CC(C)C)C(=O)N[C@@H](Cc1cnc[nH]1)C(=O)N[C@@H](CO)C(=O)N[C@@H](CCCNC(=N)N)C(=O)N[C@H](C(=O)N1CCC[C@H]1C(=O)N[C@@H](Cc1ccc(C(=O)c2ccccc2)cc1)C(=O)N1CCC[C@H]1C(=O)O)C(C)C (H-[Nle]PLHSRVP[Bpa]P-OH) | > 10000 |
| CCCC[C@H](N)C(=O)N1CCC[C@H]1C(=O)N[C@@H](CC(C)C)C(=O)N[C@@H](Cc1cccc2ccccc12)C(=O)N[C@@H](CO)C(=O)N[C@@H](CCCNC(=N)N)C(=O)N[C@H](C(=O)N1CCC[C@H]1C(=O)N[C@@H](Cc1ccccc1)C(=O)N1CCC[C@H]1C(=O)O)C(C)C (H-[Nle]PL[1Nal]SRVPFP-OH) | > 10000 |
| CCCC[C@H](N)C(=O)N1CCC[C@H]1C(=O)N[C@@H](CC(C)C)C(=O)N[C@@H](CCN)C(=O)N[C@@H](CO)C(=O)N[C@@H](CCCNC(=N)N)C(=O)N[C@H](C(=O)N1CCC[C@H]1C(=O)N[C@@H](Cc1ccccc1)C(=O)N1CCC[C@H]1C(=O)O)C(C)C (H-[Nle]PL[Dab]SRVPFP-OH) | > 10000 |
| CCCC[C@H](N)C(=O)N1CCC[C@H]1C(=O)N[C@@H](CC(C)C)C(=O)N[C@@H](Cc1cnc[nH]1)C(=O)N[C@@H](CO)C(=O)N[C@@H](CCCNC(=N)N)C(=O)N[C@H](C(=O)N1CCC[C@H]1C(=O)N[C@@H](Cc1ccc(OCc2ccccc2)cc1)C(=O)N1CCC[C@H]1C(=O)O)C(C)C (H-[Nle]PLHSRVPY(Bn)P-OH) | > 10000 |
| CCCC[C@H](N)C(=O)N1CCC[C@H]1C(=O)N[C@@H](CC(C)C)C(=O)N[C@@H](Cc1cnc[nH]1)C(=O)N[C@@H](CO)C(=O)N[C@@H](CCCNC(=N)N)C(=O)NC1(C(=O)N2CCC[C@H]2C(=O)N[C@@H](Cc2ccccc2)C(=O)N2CCC[C@H]2C(=O)O)CC1 (H-[Nle]PLHSR[Ac3c]PFP-OH) | > 10000 |
| CCCC[C@H](N)C(=O)N1CCC[C@H]1C(=O)N[C@@H](CC(C)C)C(=O)N[C@@H](Cc1cnc[nH]1)C(=O)N[C@@H](CO)C(=O)N[C@@H](CCCNC(=N)N)C(=O)N[C@H](C(=O)N1CCC[C@H]1C(=O)N[C@H](CC(=O)O)c1ccccc1)C(C)C (H-[Nle]PLHSRVP-β3hPhg) | 228 |
| CCCC[C@H](N)C(=O)N1CCC[C@H]1C(=O)N[C@@H](CC(C)C)C(=O)N[C@@H](C)C(=O)N[C@@H](CO)C(=O)N[C@@H](CCCNC(=N)N)C(=O)N[C@H](C(=O)N1CCC[C@H]1C(=O)N[C@@H](Cc1ccccc1)C(=O)N1CCC[C@H]1C(=O)O)C(C)C (H-[Nle]PLASRVPFP-OH) | 1460 |
